Source: patent US9840509B2, “Heterocyclic compounds” (CADILA HEALTHCARE LIMITED, priority 2014, dated 2017)

What was measured:
[1] = target: T1, recombinant purified human BTK (Homo sapiens, UniProt Q06187); experiment: In vitro BTK kinase assay on ADP Glo platform; type: biochemical; conditions: 2 hr room temperature, read-out: In-vitro BTK inhibitory activity: IC50
T1 construct: purchased SignalChem, USA
In short: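 Recombinant human BTK (3 ng/reaction) with compound dilutions in Tris pH 7.5, MgCl2/MnCl2, BSA, DTT; started with 50 µM ATP (final) and polyGln4Tyr1 substrate, 2 h at room temperature. ADP formed detected by ADP-Glo luminescence; IC50 by nonlinear fit versus uninhibited enzyme as 100%.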

CYP 1A2 = target: T2, CYP 1A2 (Homo sapiens, UniProt P05177); experiment: CYP inhibition in human liver microsomes, 1A2; type: in vitro ADME; conditions: pH 7.4, @ 10 μM concn
T2 construct: from tissue; host or cells: human liver microsomes
T2 sequence (P05177 1-516): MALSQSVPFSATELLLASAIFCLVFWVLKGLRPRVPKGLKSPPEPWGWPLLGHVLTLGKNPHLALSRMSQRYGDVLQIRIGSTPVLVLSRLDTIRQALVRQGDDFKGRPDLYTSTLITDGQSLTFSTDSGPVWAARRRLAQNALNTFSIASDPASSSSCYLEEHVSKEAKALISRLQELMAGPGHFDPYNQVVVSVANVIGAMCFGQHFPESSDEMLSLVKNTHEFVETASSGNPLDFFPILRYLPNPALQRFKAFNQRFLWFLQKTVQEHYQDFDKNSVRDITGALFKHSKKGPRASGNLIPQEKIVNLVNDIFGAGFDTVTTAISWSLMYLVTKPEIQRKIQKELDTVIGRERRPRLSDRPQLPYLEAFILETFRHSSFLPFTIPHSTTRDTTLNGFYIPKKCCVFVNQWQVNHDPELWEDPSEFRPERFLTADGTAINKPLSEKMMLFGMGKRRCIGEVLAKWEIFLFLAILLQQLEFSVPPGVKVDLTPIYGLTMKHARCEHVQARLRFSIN
In short: (§1)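 Human liver microsomes in 100 mM phosphate pH 7.4 with CYP-specific probe substrate were incubated with test compound at […] and 10 μM, started with 1 mM NADPH at 37° C. Reactions were stopped with acetonitrile, and marker-reaction metabolites were quantified by LC-MS/MS. Final solvent was ≤0.2%.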

CYP 2C8 = target: T3, CYP 2C8 (Homo sapiens, UniProt P10632); experiment: CYP inhibition in human liver microsomes, 2C8; type: in vitro ADME; conditions: pH 7.4, @ 10 μM concn
T3 construct: from tissue; host or cells: human liver microsomes
T3 sequence (P10632 1-490): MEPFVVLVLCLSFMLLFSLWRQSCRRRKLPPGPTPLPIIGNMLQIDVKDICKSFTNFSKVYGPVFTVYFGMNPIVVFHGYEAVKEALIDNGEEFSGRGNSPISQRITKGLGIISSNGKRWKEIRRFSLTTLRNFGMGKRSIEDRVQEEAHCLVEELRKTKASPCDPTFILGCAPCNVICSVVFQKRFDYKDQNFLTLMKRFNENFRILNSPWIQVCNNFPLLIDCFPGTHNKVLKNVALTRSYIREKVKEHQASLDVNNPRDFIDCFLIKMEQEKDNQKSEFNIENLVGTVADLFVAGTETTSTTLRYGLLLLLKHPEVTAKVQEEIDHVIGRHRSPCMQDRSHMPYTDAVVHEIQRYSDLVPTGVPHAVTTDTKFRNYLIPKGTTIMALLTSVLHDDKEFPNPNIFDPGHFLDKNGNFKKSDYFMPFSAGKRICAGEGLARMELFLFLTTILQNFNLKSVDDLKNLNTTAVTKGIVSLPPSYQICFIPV
In short: as §1

CYP 2C9 = target: T4, CYP 2C9 (Homo sapiens, UniProt P11712); experiment: CYP inhibition in human liver microsomes, 2C9; type: in vitro ADME; conditions: pH 7.4, @ 10 μM concn
T4 construct: from tissue; host or cells: human liver microsomes
In short: as §1

CYP 2C19 = target: T5, CYP 2C19 (Homo sapiens, UniProt P33261); experiment: CYP inhibition in human liver microsomes, 2C19; type: in vitro ADME; conditions: pH 7.4, @ 10 μM concn
T5 construct: from tissue; host or cells: human liver microsomes
In short: as §1

CYP 2D6 = target: T6, CYP 2D6 (Homo sapiens, UniProt P10635); experiment: CYP inhibition in human liver microsomes, 2D6; type: in vitro ADME; conditions: pH 7.4, @ 10 μM concn
T6 construct: from tissue; host or cells: human liver microsomes
In short: as §1

CYP 3A4 = target: T7, CYP 3A4 (Homo sapiens, UniProt P08684); experiment: CYP inhibition in human liver microsomes, 3A4; type: in vitro ADME; conditions: pH 7.4, @ 10 μM concn
T7 construct: from tissue; host or cells: human liver microsomes
In short: as §1

T4 sequence (P11712 whole entry): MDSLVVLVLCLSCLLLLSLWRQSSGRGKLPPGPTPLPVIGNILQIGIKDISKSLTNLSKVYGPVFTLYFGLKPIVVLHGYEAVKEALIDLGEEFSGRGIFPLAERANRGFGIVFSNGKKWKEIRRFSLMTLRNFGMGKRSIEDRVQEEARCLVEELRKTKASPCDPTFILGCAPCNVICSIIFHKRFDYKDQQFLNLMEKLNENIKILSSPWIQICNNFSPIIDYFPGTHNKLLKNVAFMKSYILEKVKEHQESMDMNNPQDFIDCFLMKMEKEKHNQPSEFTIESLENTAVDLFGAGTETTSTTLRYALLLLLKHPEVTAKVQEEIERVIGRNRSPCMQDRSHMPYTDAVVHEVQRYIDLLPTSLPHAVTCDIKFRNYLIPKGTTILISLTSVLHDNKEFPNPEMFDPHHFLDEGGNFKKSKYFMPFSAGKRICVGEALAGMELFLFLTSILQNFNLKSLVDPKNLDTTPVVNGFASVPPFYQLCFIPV
T6 sequence (P10635 whole entry): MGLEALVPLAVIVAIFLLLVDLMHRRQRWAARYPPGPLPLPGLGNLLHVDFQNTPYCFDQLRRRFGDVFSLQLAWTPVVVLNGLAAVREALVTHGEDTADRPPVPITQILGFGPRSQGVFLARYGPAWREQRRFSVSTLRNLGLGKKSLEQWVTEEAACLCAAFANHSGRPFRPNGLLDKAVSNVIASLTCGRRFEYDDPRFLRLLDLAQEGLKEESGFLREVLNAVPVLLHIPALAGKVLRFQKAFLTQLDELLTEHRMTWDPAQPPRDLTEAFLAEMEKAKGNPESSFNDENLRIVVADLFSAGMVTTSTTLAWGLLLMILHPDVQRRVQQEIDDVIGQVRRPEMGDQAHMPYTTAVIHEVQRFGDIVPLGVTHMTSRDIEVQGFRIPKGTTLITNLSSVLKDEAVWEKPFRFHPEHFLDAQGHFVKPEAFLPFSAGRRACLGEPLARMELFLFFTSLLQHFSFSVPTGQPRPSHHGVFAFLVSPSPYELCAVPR
T5 sequence (P33261 whole entry): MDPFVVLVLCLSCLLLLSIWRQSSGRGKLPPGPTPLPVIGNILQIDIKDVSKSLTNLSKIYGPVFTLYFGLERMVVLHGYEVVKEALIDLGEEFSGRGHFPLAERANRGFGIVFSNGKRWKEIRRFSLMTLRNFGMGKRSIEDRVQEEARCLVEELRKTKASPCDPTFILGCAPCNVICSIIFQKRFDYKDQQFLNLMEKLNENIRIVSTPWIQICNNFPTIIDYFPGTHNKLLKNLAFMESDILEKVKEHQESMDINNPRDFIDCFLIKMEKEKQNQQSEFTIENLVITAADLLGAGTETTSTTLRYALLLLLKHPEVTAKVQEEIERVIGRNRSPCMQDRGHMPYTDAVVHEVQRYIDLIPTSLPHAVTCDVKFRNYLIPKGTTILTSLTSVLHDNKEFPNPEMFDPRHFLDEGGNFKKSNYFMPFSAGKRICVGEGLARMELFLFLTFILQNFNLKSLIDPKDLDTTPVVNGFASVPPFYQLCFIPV
T1 sequence (Q06187 whole entry): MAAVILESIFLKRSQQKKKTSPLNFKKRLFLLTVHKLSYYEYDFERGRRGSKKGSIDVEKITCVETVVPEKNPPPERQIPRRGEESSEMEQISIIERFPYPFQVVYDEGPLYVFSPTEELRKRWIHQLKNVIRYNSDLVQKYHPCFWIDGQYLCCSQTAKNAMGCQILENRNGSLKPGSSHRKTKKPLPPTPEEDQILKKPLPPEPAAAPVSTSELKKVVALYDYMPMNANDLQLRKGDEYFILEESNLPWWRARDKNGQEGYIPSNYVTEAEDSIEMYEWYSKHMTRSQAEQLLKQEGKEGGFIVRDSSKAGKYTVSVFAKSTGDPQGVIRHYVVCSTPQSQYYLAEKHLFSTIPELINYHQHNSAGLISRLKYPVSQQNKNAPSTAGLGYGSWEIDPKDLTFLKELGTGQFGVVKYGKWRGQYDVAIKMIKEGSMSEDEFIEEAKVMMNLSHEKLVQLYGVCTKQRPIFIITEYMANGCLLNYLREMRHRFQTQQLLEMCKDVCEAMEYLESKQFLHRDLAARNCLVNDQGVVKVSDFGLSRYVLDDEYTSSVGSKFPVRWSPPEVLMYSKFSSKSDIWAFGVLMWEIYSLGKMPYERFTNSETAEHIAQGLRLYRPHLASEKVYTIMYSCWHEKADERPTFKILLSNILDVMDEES
T7 sequence (P08684 whole entry): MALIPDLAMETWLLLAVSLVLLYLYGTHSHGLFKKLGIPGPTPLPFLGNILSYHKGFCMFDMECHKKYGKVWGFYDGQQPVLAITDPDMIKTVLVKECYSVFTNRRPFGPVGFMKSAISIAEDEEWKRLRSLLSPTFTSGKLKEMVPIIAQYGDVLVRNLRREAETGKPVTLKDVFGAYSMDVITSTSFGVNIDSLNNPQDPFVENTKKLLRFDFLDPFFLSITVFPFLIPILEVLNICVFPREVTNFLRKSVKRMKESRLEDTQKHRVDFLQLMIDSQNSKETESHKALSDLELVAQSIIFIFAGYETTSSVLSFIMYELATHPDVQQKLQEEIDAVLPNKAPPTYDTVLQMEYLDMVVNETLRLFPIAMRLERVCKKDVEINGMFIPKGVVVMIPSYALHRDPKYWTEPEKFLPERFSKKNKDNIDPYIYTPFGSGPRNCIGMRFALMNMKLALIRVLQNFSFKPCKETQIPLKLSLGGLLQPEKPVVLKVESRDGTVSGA

Structure (SMILES)	IC50 [1] [nM]	inhibition at 10 μM (CYP 1A2) [%]	inhibition at 10 μM (CYP 2C8) [%]	inhibition at 10 μM (CYP 2C9) [%]	inhibition at 10 μM (CYP 2C19) [%]	inhibition at 10 μM (CYP 2D6) [%]	inhibition at 10 μM (CYP 3A4) [%]
CN(C)C/C=C/C(=O)N1CC2CC(n3nc(-c4ccc(C(=O)Nc5cc(C(F)(F)F)ccn5)cc4)c4c(N)ncnc43)CC2C1 (stereo not drawn) [Compound 51, (E)-4-(4-amino-1-(2-(4-(dimethylamino)but-2-enoyl)octahydrocyclopenta [c]pyrrol-5-yl)-1H-pyrazolo[3,4-d]pyrimidin-3-yl)-N-(4-(trifluoromethyl)pyridine-2-yl)benzamide]	100	< 50	> 50	> 50	< 50	< 50	> 50
C=CC(=O)N1CC2CC(n3nc(-c4ccc(Oc5cccnc5)cc4)c4c(N)ncnc43)CC2C1 (stereo not drawn) [Compound 52, 1-(5-(4-amino-3-(4-(pyridin-3-yloxy)phenyl)-1H-pyrazolo[3,4-d]pyrimidin-1-yl)hexahydrocyclopenta[c]pyrrol-2(1H)-yl)prop-2-en-1-one]	162	> 50	< 50	< 50	> 50	< 50	> 50
CN(C)C/C=C/C(=O)N1CC2CC(n3nc(-c4ccc(Oc5cccnc5)cc4)c4c(N)ncnc43)CC2C1 (stereo not drawn) [Compound 53, (E)-1-(5-(4-amino-3-(4-(pyridin-3-yloxy)phenyl)-1H-pyrazolo[3,4-d]pyrimidin-1-yl)hexahydrocyclopenta[c]pyrrol-2(1H)-yl)-4-(dimethylamino)but-2-en-1-one]	10	< 50	< 50	< 50	< 50	< 50	> 50
Cc1ccnc(N(C)C(=O)c2ccc(-c3nn(C4CC5CN(C(=O)/C=C/CN(C)C)CC5C4)c4ncnc(N)c34)cc2)c1 (stereo not drawn) [Compound 55, (E)-4-(4-amino-1-(2-(4-(dimethylamino)but-2-enoyl)octahydrocyclopenta [c]pyrrol-5-yl)-1H-pyrazolo[3,4-d]pyrimidin-3-yl)-N-methyl-N-(4-methylpyridin-2-yl)benzamide]	80	< 50	> 50	> 50	> 50	< 50	> 50
CN(C)C/C=C/C(=O)N1CC2CC(n3nc(-c4ccc(-c5nnc(-c6cnccn6)s5)cc4)c4c(N)ncnc43)CC2C1 (stereo not drawn) [Compound 56, (E)-1-(5-(4-amino-3-(4-(5-(pyrazin-2-yl)-1,3,4-thiadiazol-2-yl)phenyl)-1H-pyrazolo[3,4-d]pyrimidin-1-yl)hexahydrocyclopenta[c]pyrrol-2(1H)-yl)-4-(dimethylamino)but-2-en-1-one]	50	> 50	> 50	> 50	< 50	< 50	> 50
CN(C)C/C=C/C(=O)N1CC2CC(n3nc(-c4ccc(-c5nnc(-c6ccccn6)o5)cc4)c4c(N)ncnc43)CC2C1 (stereo not drawn) [Compound 57, (E)-1-(5-(4-amino-3-(4-(5-(pyridin-2-yl)-1,3,4-oxadiazol-2-yl)phenyl)-1H-pyrazolo[3,4-d]pyrimidin-1-yl)hexahydrocyclopenta[c]pyrrol-2(1H)-yl)-4-(dimethylamino)but-2-en-1-one]	100	< 50	> 50	> 50	< 50	< 50	> 50
